Source: the NIST ThermoML archive (doi:10.1021/je800940j)

Tests used:
[1] = 101 kPa, Liquid
[2] = xn = mol fraction of the nth substance listed; conditions: Liquid; for viscosity: Concentric cylinders viscometry

Cc1ccccc1 [toluene]
[1]
Conditions	mass density [kg/m3]
283.15 K	876.1
293.15 K	866.75
303.15 K	857.48
313.15 K	848.08
323.15 K	838.7

[1], Automatic viscometer
Conditions	viscosity [mPa·s]
283.15 K	0.6657
293.15 K	0.5958
303.15 K	0.5368
313.15 K	0.4859
323.15 K	0.4408

C1CC[C@H]2CCCC[C@H]2C1 [cis-decahydronaphthalene] + C1CC[C@H]2CCCC[C@@H]2C1
[2], 101.3 kPa, x1 = 0.4106
Conditions	mass density [kg/m3]	viscosity [mPa·s]
283.15 K	887.8	3.097
293.15 K	880.25	2.504
303.15 K	872.7	2.066
313.15 K	865.15	1.734
323.15 K	857.65	1.477

C1CCCCC1 [cyclohexane]
[1]
Conditions	mass density [kg/m3]
283.15 K	787.95
293.15 K	778.7
303.15 K	769.2
313.15 K	759.65
323.15 K	749.9

[1], Concentric cylinders viscometry
Conditions	viscosity [mPa·s]
283.15 K	1.18
293.15 K	0.9847
303.15 K	0.8295
313.15 K	0.7061
323.15 K	0.5978

Cc1ccccc1 [toluene] + C1CCCCC1
[2], 101 kPa, x2 = 0
Conditions	mass density [kg/m3]	viscosity [mPa·s]
283.15 K	876.1	0.6657
293.15 K	866.75	0.5958
303.15 K	857.48	0.5368
313.15 K	848.08	0.4859
323.15 K	838.7	0.4408
